Data on 22 compounds can be found in US20110319379A1, “Substituted Indazole Amides And Their Use As Glucokinase Activators” (priority 2009, published 2011).

Structures are written as SMILES. pEC50: −log10 of the molar value.

As usually defined, the pEC50 is the negative decadic logarithm of the EC50, by convention in mol/L.

The assay concerns the target T1, recombinant human glucokinase (Homo sapiens, UniProt P35557).
T1 construct: Full-length glucokinase (beta cell isoform) was His-tagged at the N-terminus and purified by a Ni column followed by size exclusion chromatography as described above; His tag; made in house; host or cells: E. coli BL21(DE3), vector pBCGK
T1 sequence (P35557 1-465): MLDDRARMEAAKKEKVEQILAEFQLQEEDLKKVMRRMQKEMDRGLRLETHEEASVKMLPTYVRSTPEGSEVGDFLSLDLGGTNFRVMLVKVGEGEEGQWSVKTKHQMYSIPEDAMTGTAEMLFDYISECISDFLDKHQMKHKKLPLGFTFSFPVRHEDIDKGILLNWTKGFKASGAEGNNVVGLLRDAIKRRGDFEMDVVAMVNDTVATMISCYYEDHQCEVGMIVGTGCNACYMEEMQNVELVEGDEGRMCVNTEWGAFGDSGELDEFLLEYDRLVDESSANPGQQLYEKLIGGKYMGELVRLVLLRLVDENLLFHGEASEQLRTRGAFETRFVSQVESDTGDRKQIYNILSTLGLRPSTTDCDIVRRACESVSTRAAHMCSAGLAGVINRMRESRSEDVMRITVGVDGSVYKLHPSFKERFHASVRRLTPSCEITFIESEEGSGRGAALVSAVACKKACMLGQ
As to the kind of experiment: Assay 2: Evaluating Activator Potency in a Matrix Assay at Multiple Glucose Concentrations. The format is biochemical. The conditions noted are these: Assay 2 matrix assay; 16 glucose concentrations; intrinsic EC50 = concentration affording a 50% reduction in the enzyme's Km (for glucose); read-out: Glucokinase EC50. As for the experimental part:
Representative compounds of this invention were evaluated in biochemical assays (Assay 1 or Assay 2) to characterize their glucokinase activation properties.
The recombinant human glucokinase protein utilized in both assays was prepared and purified as described below.
BL21(DE3) cells (Invitrogen Corporation, Carlsbad, Calif.) containing pBCGK (C or N H is) vector were grown at 37° C. (in 2XYT) until the OD600 was between 0.6-1.0. Expression was induced by addition of isopropylthiogalactoside to a final concentration of 0.1-0.2 mM to the cells which were then incubated overnight at 23° C. The next day, cells were harvested via centrifugation at 5000 rpm for 15 minutes at 4° C. The cell pellet was stored at −80° C. for future purification.
Beta Cell Glucokinase His-Taq Purification Conditions: A Ni-NTA (Quigan, Germantown, Md.) column (15-50 mL) was used for separation. Two buffers were prepared, 1) a lysis/nickel equilibration and wash buffer and 2) a nickel elution buffer. The lysis/equilibration/wash buffer was prepared as such: 25 mM HEPES buffer at pH 7.5, 250 mM NaCl, 20 mM imidazole, and 14 mM β-mercaptoethanol as final concentrations. The elution buffer was prepared as such: 25 mM HEPES at pH 7.5, 250 mM NaCl, 400 mM imidazole, and 14 mM β-mercaptoethanol as final concentrations. The buffers were each filtered with a 0.22 μm filter prior to use. The cell pellet (1 L culture) was resuspended in 300 mL of the lysis/equilibration buffer. The cells were then lysed (3 times) with a Microfluidics Model 110Y microfluidizer (Microfluidics Corporation, Newton, Mass.). The slurry was centrifuged with a Beckman Coulter Model LE-80K ultracentrifuge (Beckman Coulter, Fullerton, Calif.) at 40,000 rpm for 45 minutes at 4° C. The supernatant was transferred to a chilled flask. A volume of 20 μl was saved for gel analysis. A Pharmacia AKTA (GMI, Inc., Ramsey, Minn.) purification system was used for separation. The prime lines were purged with lysis/equilibration buffer. The Ni-NTA column was equilibrated with 200 mL of the lysis/equilibration buffer at a flow rate of 5 mL/minute. The supernantant was loaded over the column at 4 mL/minute and the flow-through was collected in a flask. The unbound proteins were washed with lysis/equilibration buffer at a flow rate of 5 mL/minute until the ultraviolet reaches baseline. The protein was then eluted from the column with the imidazole elution buffer via imidazole gradient 20 mM to 400 mM over 320 mL. The column was then stripped of any additional protein with 80 mL of the elution buffer. The elution fractions were each 8 mL, for a total yield of 50 samples. Fractions were analyzed by sodium dodecyl sulfate polyacrylamide (SDS-PAGE) and the fractions containing protein of interest were pooled and concentrated to 10 mL using ultrafiltration cell with a 10,000 molecular weight cut-off (MWCO) Millipore membrane (Sigma-Aldrich, St. Louis, Mo.) under nitrogen gas (60 psi). Protein was further purified by size exclusion chromatography (SEC) using a […] (320 mL) (Amersham Pharmacia, Uppsala, Sweden). SEC was equilibrated with 450 mL sizing buffer containing 25 mM HEPES pH 7.0, 50 mM NaCl, and 5 mM dithiothreitol. Concentrated protein was then loaded over SEC and elution with 400 mL sizing buffer was performed overnight at 0.5 mL/minute. The elution fractions were 5 mL each. The fractions were analyzed by SDS-PAGE and protein containing fractions were pooled. Concentration was measured using Bradford Assay/BSA Standard. Purified protein was stored in small aliquots at −80° C.
Assay 2: Evaluating Activator Potency in a Matrix Assay at Multiple Glucose Concentrations
Utilizing an adaptation of this method, representative compounds of the current invention were evaluated at 22 different concentrations and 16 different glucose concentrations in a coupled enzyme assay system that detects glucokinase activity via depletion of β-NADH.
For `CCn1cc2c(Oc3cnc(C(N)=O)cn3)cc(C(=O)Nc3ccc(C)cn3)cc2n1` [Example 1CO, 4-(5-carbamoylpyrazin-2-yloxy)-2-ethyl-N-(5-methylpyridin-2-yl)-2H-indazole-6-carboxamide], the pEC50 was 5.73.
To `CCOc1cnc(NC(=O)c2cc(Oc3ccc(S(C)(=O)=O)cc3)c3cn(CC)nc3c2)cn1` [Example 1BG, N-(5-ethoxypyrazin-2-yl)-2-ethyl-4-[4-(methylsulfonyl)phenoxy]-2H-indazole-6-carboxamide] belongs 6.69; to `CCn1cc2c(Oc3ccc(S(C)(=O)=O)cc3)cc(C(=O)Nc3ccc(C(N)=O)cn3)cc2n1` [Example 1CD, N-(5-carbamoylpyridin-2-yl)-2-ethyl-4-[4-(methylsulfonyl)phenoxy]-2H-indazole-6-carboxamide], 6.58; to `Cn1ccc(NC(=O)c2cc(Oc3ccc(S(N)(=O)=O)cc3)c3cn(C)nc3c2)n1` [Example 1AU, 4-[4-(aminosulfonyl)phenoxy]-2-methyl-N-(1-methyl-1H-pyrazol-3-yl)-2H-indazole-6-carboxamide], 5.21.
The same measure for `CCn1cc2c(Oc3cnc(N(C)S(C)(=O)=O)cn3)cc(C(=O)Nc3ccc(C)cn3)cc2n1` [Example 1AN, 2-ethyl-4-({5-[methyl(methylsulfonyl)amino]pyrazin-2-yl}oxy)-N-(5-methylpyridin-2-yl)-2H-indazole-6-carboxamide]: 6.27; for `Cc1cnc(NC(=O)c2cc(Oc3cnc(C(=O)N4CCC4)c(F)c3)c3cn(C)nc3c2)cn1` [Example 1BC, 4-(6-(azetidine-1-carbonyl)-5-fluoropyridin-3-yloxy)-2-methyl-N-(5-methylpyrazin-2-yl)-2H-indazole-6-carboxamide]: 6.43; for `CCn1cc2c(Oc3cnc(NC(C)=O)cn3)cc(C(=O)Nc3ccc(C)cn3)cc2n1` [Example 1CM, 4-(5-acetamidopyrazin-2-yloxy)-2-ethyl-N-(5-methylpyridin-2-yl)-2H-indazole-6-carboxamide]: 5.61.
For the compound `Cn1ccc(NC(=O)c2cc(Oc3cnc(C(=O)N4CCCC4)cn3)c3cn(C)nc3c2)n1` [Example 1BO, 2-methyl-N-(1-methyl-1H-pyrazol-3-yl)-4-(5-(pyrrolidine-1-carbonyl)pyrazin-2-yloxy)-2H-indazole-6-carboxamide], the negative-log EC50 (pEC50) is 6.60.
Consider `Cc1ccc(NC(=O)c2cc(Oc3ccc(S(C)(=O)=O)cc3C(F)(F)F)c3cn(C)nc3c2)nc1` [Example 1AR, 2-methyl-N-(5-methylpyridin-2-yl)-4-[4-(methylsulfonyl)-2-(trifluoromethyl)phenoxy]-2H-indazole-6-carboxamide], for which the pEC50 is 6.26.
To `CNS(=O)(=O)c1ccc(Oc2cc(C(=O)Nc3ccn(C)n3)cc3nn(C)cc23)cc1` [Example 1BL, 2-methyl-4-{4-[(methylamino)sulfonyl]phenoxy}-N-(1-methyl-1H-pyrazol-3-yl)-2H-indazole-6-carboxamide] belongs 5.74; to `CCS(=O)(=O)N(C)c1cnc(Oc2cc(C(=O)Nc3ccc(C)cn3)cc3nn(C)cc23)cn1` [Example 1AY, 4-({5-[(ethylsulfonyl)(methyl)amino]pyrazin-2-yl}oxy)-2-methyl-N-(5-methylpyridin-2-yl)-2H-indazole-6-carboxamide], 6.17.
To `CCn1cc2c(Oc3ccc(S(C)(=N)=O)cc3)cc(C(=O)Nc3ccc(C)cn3)cc2n1` (single isomer, unassigned) [Example 1CX, 2-ethyl-N-(5-methylpyridin-2-yl)-4-[4-(S-methylsulfonimidoyl)phenoxy]-2H-indazole-6-carboxamide] belongs 5.86.
For `CCn1cc2c(Oc3ccc4c(c3)CCS4(=O)=O)cc(C(=O)Nc3ccc(C)cn3)cc2n1` [Example 1AW, 4-[(1,1-dioxido-2,3-dihydro-1-benzothien-5-yl)oxy]-2-ethyl-N-(5-methylpyridin-2-yl)-2H-indazole-6-carboxamide], the pEC50 was 6.01.
Regarding `CCn1cc2c(Oc3ccc(S(C)(=O)=O)cc3)cc(C(=O)Nc3cnc(C)cn3)cc2n1` [Example 1CB, 2-ethyl-N-(5-methylpyrazin-2-yl)-4-[4-(methylsulfonyl)phenoxy]-2H-indazole-6-carboxamide], the pEC50 was 6.27.
As to `CCn1cc2c(Oc3cnc(C(=O)N4CCC4)cn3)cc(C(=O)Nc3cnc(C)cn3)cc2n1` [Example 1BR, 4-(5-(azetidine-1-carbonyl)pyrazin-2-yloxy)-2-ethyl-N-(5-methylpyrazin-2-yl)-2H-indazole-6-carboxamide], the pEC50 was 6.10.
Consider `CCn1cc2c(Oc3ccc(S(C)(=O)=O)cc3)cc(C(=O)Nc3ncns3)cc2n1` [Example 1CL, 2-ethyl-4-[4-(methylsulfonyl)phenoxy]-N-1,2,4-thiadiazol-5-yl-2H-indazole-6-carboxamide], for which the pEC50 is 6.04.
To `CCn1cc2c(Oc3cnc(C(=O)N4CCCC4)cn3)cc(C(=O)Nc3cnc(C)cn3)cc2n1` [Example 1BP, 2-ethyl-N-(5-methylpyrazin-2-yl)-4-(5-(pyrrolidine-1-carbonyl)pyrazin-2-yloxy)-2H-indazole-6-carboxamide] belongs 6.54.
To `CCc1cnc(NC(=O)c2cc(Oc3ccc(S(C)(=O)=O)cc3)c3cn(CC)nc3c2)cn1` [Example 1BH, 2-ethyl-N-(5-ethylpyrazin-2-yl)-4-[4-(methylsulfonyl)phenoxy]-2H-indazole-6-carboxamide] belongs 6.27; to `CN(C)S(=O)(=O)c1ccc(Oc2cc(C(=O)Nc3ccn(C)n3)cc3nn(C)cc23)cn1` [Example 1AM, 4-({6-[(dimethylamino)sulfonyl]pyridin-3-yl}oxy)-2-methyl-N-(1-methyl-1H-pyrazol-3-yl)-2H-indazole-6-carboxamide], 5.41.
Take `CCn1cc2c(Oc3ccc(S(C)(=O)=O)cc3)cc(C(=O)Nc3cnn(C)n3)cc2n1` [Example 1CA, 2-ethyl-4-[4-(methylsulfonyl)phenoxy]-N-(2-methyl-2H-1,2,3-triazol-4-yl)-2H-indazole-6-carboxamide]: the pEC50 is 5.07.
With `CCn1cc2c(Oc3ccc(S(C)(=N)=O)cc3)cc(C(=O)Nc3ccc(C)cn3)cc2n1` (single isomer, unassigned) [Example 1CW, 2-ethyl-N-(5-methylpyridin-2-yl)-4-[4-(S-methylsulfonimidoyl)phenoxy]-2H-indazole-6-carboxamide], the pEC50 was 6.26.
With `COc1cnc(NC(=O)c2cc(Oc3cnc(C(=O)N(C)C)c(F)c3)c3cn(C)nc3c2)cn1` [Example 1BE, 4-(6-(dimethylcarbamoyl)-5-fluoropyridin-3-yloxy)-N-(5-methoxypyrazin-2-yl)-2-methyl-2H-indazole-6-carboxamide], the negative-log EC50 (pEC50) is 6.34.
